Test results published in PMC5223195, “Novel long-chain compounds with both immunomodulatory and MenA inhibitory activities against Staphylococcus aureus and its biofilm” (Scientific Reports, 2017).
≈ marks a conversion by molar mass, not a printed value. Entries after “also recorded” stand apart in the source; their conditions may differ. Where two headings read alike, the source gives them in different places.

Key:
MRSA (USA200) = assay: Colony morphology / small colony variant formation on TSA; assay type: cell-based, Staphylococcus aureus
Procedure: MRSA was streaked and then incubated on tryptic soy agar (TSA) containing 0, 2, 4, 8 or 16 μg/mL of inhibitor 3a or 4 μg/mL of 7C or 0.025 μg/mL of rifampin at 37 °C for 96 h. MK-4 (100 μg/mL) was supplemented in TSA containing 8 μg/mL of 3a for the rescue experiment.

Enterococcus faecalis = assay: MIC against Enterococcus faecalis; assay type: cell-based; details: read-out: MIC, EF
IL-1β = IL-1β release from THP-1 macrophages; assay type: cell-based, human; details: concentration equal to MIC, 24 h, 37 °C
Procedure: (§1) THP-1 cells were differentiated into macrophages by treatment with PMA (7.5 ng/mL). Levels of the human cytokines (GM-CSF, IFN-γ, IL-1β, IL-2, IL-4, IL-5, IL-6, IL-8, IL-10, TNF-α) released from THP-1 macrophages were determined using a multiplex kit from Life Technologies according to the manufacturer’s instructions. In brief, the 96 well filter plate was pre-wetted, and then 25 μL of the diluted bead suspension was added to each well and washed twice. 100 μL of samples and standards were added to each well. The plate was incubated at room temperature for 2 h on a shaker. Following washing, biotinylated detection antibody was added and incubated for 1 h. After washing, streptavidin-RPE was added to each well and incubated for 0.5 h. The plate was again washed, resuspended in 100 μL of the washing buffer, and read on the Luminex xMAP™ system (Bio-Rad, AtheNA multi-Lyte™, USA). All samples were run in triplicate and standards were run in duplicate.

MRSA USA100 = assay: MIC against MRSA USA100; assay type: cell-based, Staphylococcus aureus; details: Staphylococcus aureus; TSB, 37 °C, 18–20 hours; read-out: MIC, Staphylococcus aureus isolate USA100
Procedure: (§2) 96-well plates were seeded with 5 × 10^5 CFU/mL in a volume of 100 μL of tryptic soy broth (TSB) per well for Staphylococcus aureus assays. Compounds were dissolved in DMSO and serially diluted as 1:2 dilutions to give the final concentration ranging from 0.25 to 128 μg/mL per well. […] Plates were incubated at 37 °C for 18–20 hours and MIC was determined by reading OD625. For M.avium and M.abscessus, 7H9 broth media was used for determination of MICs. The final concentration was 5 × 10^5 CFU/mL in each well. The plate was incubated at 37 °C for 7–8 days and MICs were determined using a Tecan microplate reader (OD625) and resazurin reduction assay.

[1] = system: Methicillin susceptible Staphylococcus aureus; assay: MIC against MSSA; assay type: cell-based; details: MSSA
Procedure: as §2

Mycobacterium abscessus = assay: MIC against Mycobacterium abscessus; assay type: cell-based; details: Mycobacteroides abscessus, 7H9 broth, 7–8 days
Procedure: as §2

Mycobacterium avium = assay: MIC against Mycobacterium avium; assay type: cell-based; details: 7H9 broth, 7–8 days
Procedure: as §2

Gram-positive bacteria = assay: MIC against Gram-positive bacteria (summary); assay type: cell-based; details: range over all tested Gram-positive bacteria
Procedure: as §2

MRSA USA200 = assay: MIC against MRSA USA200; assay type: cell-based, Staphylococcus aureus; details: Staphylococcus aureus; TSB, 37 °C, 18–20 hours; read-out: MIC, Staphylococcus aureus isolate USA200
Procedure: as §2

MRSA USA400 = assay: MIC against MRSA USA400; assay type: cell-based, Staphylococcus aureus; details: Staphylococcus aureus; TSB, 37 °C, 18–20 hours; read-out: MIC, Staphylococcus aureus isolate USA400
Procedure: as §2

MRSA USA300 = assay: MIC against MRSA USA300; assay type: cell-based, Staphylococcus aureus; details: Staphylococcus aureus; TSB, 37 °C, 18–20 hours; read-out: MIC, Staphylococcus aureus isolate USA300
Procedure: as §2

MRSA USA500 = assay: MIC against MRSA USA500; assay type: cell-based, Staphylococcus aureus; details: Staphylococcus aureus; TSB, 37 °C, 18–20 hours; read-out: MIC, Staphylococcus aureus isolate USA500
Procedure: as §2

MRSA strains = assay: MIC against MRSA strains (summary); assay type: cell-based, Staphylococcus aureus; details: range over MRSA strains
Procedure: as §2

IL-6 = IL-6 release from THP-1 macrophages; assay type: cell-based, human; details: concentration equal to MIC, 24 h, 37 °C
Procedure: as §1

MRSA USA700 = assay: MIC against MRSA USA700; assay type: cell-based, Staphylococcus aureus; details: TSB, 37 °C, 18–20 hours
Procedure: as §2

MRSA USA 700 = assay: Menaquinone (MK-4) rescue, resazurin reduction assay, USA 700; assay type: cell-based; details: Staphylococcus aureus, read-out: MIC in the presence of MK-4
Procedure: Resazurin reduction assay was performed in 96-well plate. MRSA was cultured in TSB until OD625 reached 0.4~0.5 and diluted and plated in 96-well plate. […] The plate was incubated overnight at 37 °C followed by 20 μL of resazurin (0.15 mg/mL) was added to each well. The plate was incubated for 2–4 h and fluorescence was measured at 560 nm excitation/590 nm emission.

MRSA (USA 700) = assay: Activity against extracellular MRSA in the presence of human MDMs; assay type: cell-based, Staphylococcus aureus; details: extracellular MRSA USA700, MIC and MIC/4, 24 h
Procedure: Human monocyte-derived macrophages (MDM) were cultured at a concentration of 1 × 10^6 cells/mL/well in a 24 well plate. MRSA (USA 700) was cultured in TSB (10 mL) until OD625 reached 0.4~0.5 and then centrifuged at 14,000 rpm for 10 min. The pellets were resuspended in 10 mL of DMEM supplemented with 10% human serum (no antibiotics). The bacteria medium was diluted with DMEM containing an inhibitor to obtain 1 × 10^6 CFU/mL and added to human MDMs (MOI = 1) in a 24-well plate. After 24 hour infection at 37 °C, the supernatants were serially diluted for CFU determination (TSA plates).

Pseudomonas aeruginosa = assay: MIC against Pseudomonas aeruginosa; assay type: cell-based; details: read-out: MIC, PA
TNF-α = TNF-α release from THP-1 macrophages; assay type: cell-based, human; details: concentration equal to MIC, 24 h, 37 °C
Procedure: as §1

MRSA (USA700) biofilms = assay: S. aureus biofilm assay; assay type: cell-based, Staphylococcus aureus; details: USA700 biofilm, 24 h
Procedure: Biofilm assays were performed using a method previously described with modification. A 96 well plate was precoated with 20% human plasma (Sigma) in 0.05 M carbonate buffer, pH 9.6 at 4 °C for 24 h. MRSA was cultured overnight in TSB containing 3% NaCl and 0.5% glucose. The overnight culture was diluted with TSB/NaCl/Glucose media until OD600 reached 0.05. After carefully removing the liquid from the 96 well plate, 200 μL of MRSA dilution was added to each well in triplicate. The plate was incubated at 37 °C for 24 h and carefully washed with PBS twice. MH broth (200 μL) containing a compound was added to each well in triplicate and incubated at 37 °C for 24 h. After washing with PBS twice, the biofilm was scraped in 100 μL of PBS and serially diluted and plated on TSA to determine CFU.

MRSA USA800 = assay: MIC against MRSA USA800; assay type: cell-based, Staphylococcus aureus; details: Staphylococcus aureus; TSB, 37 °C, 18–20 hours; read-out: MIC, Staphylococcus aureus isolate USA800
Procedure: as §2

## COc1ccc2ccc(OCCCCCCCCNCCc3ccc(F)cc3)cc2c1 [3a]
MRSA (USA200); USA200, 8 μg/mL inhibitor + MK-4 100 μg/mL
  colonies on MK-4 supplemented agar plate: showed wild-type colonies
MRSA (USA200); USA200, more than 2× MIC, after 24 h
  colonies on agar plates: No colonies were observed
MRSA (USA200); USA200 on TSA, 37 °C, up to 96 h (3a 4–16 μg/mL), 72 h (7c, rifampin)
  induction of small colony variants (SCV): did not induce SCV
Enterococcus faecalis
  MIC: 1 µg/mL (≈ 2.36 µM)
IL-1β
  IL-1β released from THP-1 macrophages: stimulated the release
MRSA USA100
  MIC: 4 µg/mL (≈ 9.44 µM)
[1]
  MIC: 4 µg/mL (≈ 9.44 µM)
Mycobacterium abscessus
  MIC: 6 µg/mL (≈ 14.2 µM)
Mycobacterium avium
  MIC: 2 µg/mL (≈ 4.72 µM)
Gram-positive bacteria
  MIC values against all Gram-positive bacteria (range): 0.5 to 16 µg/mL
MRSA USA200
  MIC: 2 µg/mL (≈ 4.72 µM)
MRSA USA400
  MIC: 4 µg/mL (≈ 9.44 µM)
MRSA USA300
  MIC: 4 µg/mL (≈ 9.44 µM)
MRSA USA500
  MIC: 4 µg/mL (≈ 9.44 µM)
MRSA strains
  MICs against MRSA strains (range): 1 to 8 µg/mL
IL-6
  IL-6 released from THP-1 macrophages: decreased; also recorded: significantly reduced
MRSA USA700; Staphylococcus aureus, read-out: MIC, Staphylococcus aureus isolate USA700
  MIC: 4 µg/mL (≈ 9.44 µM)
MRSA USA700
  MIC, Staphylococcus aureus isolate USA700: 4 µg/mL (≈ 9.44 µM)
MRSA USA 700; USA 700, 0.05 mg/mL MK-4
  MIC: 16 µg/mL
MRSA USA 700; USA 700, 0.5 mg/mL MK-4
  MIC: 64 µg/mL
MRSA (USA 700)
  increase of antibacterial activity compared to activities with MDMs: 1.5 – 3 fold
  increase of antibacterial activity compared to activities without MDMs: 6–12 fold
Pseudomonas aeruginosa
  MIC: > 64 µg/mL
TNF-α
  TNF-α released from THP-1 macrophages: decreased
MRSA (USA700) biofilms; 0.03 mg/mL
  fold decrease in MRSA growth from the treated biofilm: 10^4 fold
MRSA (USA700) biofilms; 0.5 mg/mL
  fold decrease in MRSA growth from the treated biofilm: 10^6 fold
MRSA (USA700) biofilms; 1 mg/mL
  fold decrease in MRSA growth from the treated biofilm: 10^7 fold
MRSA USA800
  MIC: 6 µg/mL (≈ 14.2 µM)
